Laboratory results published in patent US20240217957A1, “HETEROCYCLIC COMPOUND AND USE THEREOF” (TAKEDA PHARMACEUTICAL COMPANY LIMITED, priority 2022, published 2024).

Molecular target: T1, human OX2 receptor (Homo sapiens, UniProt O43614)
T1 construct: expressed in transfected cells
T1 sequence (O43614 1-444): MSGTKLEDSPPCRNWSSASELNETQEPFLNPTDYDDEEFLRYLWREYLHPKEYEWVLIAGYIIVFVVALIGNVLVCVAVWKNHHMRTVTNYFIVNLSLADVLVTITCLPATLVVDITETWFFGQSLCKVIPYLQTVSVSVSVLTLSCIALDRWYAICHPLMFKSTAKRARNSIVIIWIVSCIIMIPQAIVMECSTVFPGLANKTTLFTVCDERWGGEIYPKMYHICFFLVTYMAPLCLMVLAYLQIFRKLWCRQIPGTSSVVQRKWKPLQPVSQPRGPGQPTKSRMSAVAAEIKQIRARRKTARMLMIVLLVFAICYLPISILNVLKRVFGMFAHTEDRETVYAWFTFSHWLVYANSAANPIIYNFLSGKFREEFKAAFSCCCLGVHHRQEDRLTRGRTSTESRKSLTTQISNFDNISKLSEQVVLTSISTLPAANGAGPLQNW
Assay: Measurement of orexin type 2 receptor agonist activity (calcium fluorescence, Fluo-4 AM, FDSS)
Assay type: cell-based
Conditions: compound at 3 μM; CHO cells forcibly expressing human OX2 receptor; DMSO = 0%, 10 nM orexin A (human) = 100%
Description: In order to obtain cell clones that stably express human orexin type 2 receptor, human orexin type 2 (residues 1-444, NCBI Reference Sequence: AK314279) was constructed in a pcDNA3.1 (+) vector (Invitrogen) to express in mammalian cells. This plasmid DNA was transfected into CHO-K1 cells by electroporation, and stable clones were obtained by limiting dilution using resistance to G418 as a selection marker.
CHO cells in which human OX2 receptor was forcibly expressed were seeded at 10,000 cells/well into a 384-well black transparent bottom plate (BD falcon), and were incubated at 37° C., 5% CO2 for 1 day after incubation at room temperature for 30 minutes. After removing the cell plate medium, assay buffer containing calcium indicator A (HBSS (Thermo Fisher Scientific), 20 mM HEPES (Thermo Fisher Scientific), 0.1% BSA (Sigma-Aldrich), 2.5 μg/mL Fluo-4 AM (Dojin Kagaku), 0.08% Pluronic F127 (Dojin Kagaku), 1.25 mM probenecid (Dojin Kagaku)) was added at 30 μL/well. After incubation in a 5% CO2 incubator at 37° C. for 30 minutes, it was incubated at room temperature for another 30 minutes. Add 10 μL/well of the test compound diluted with assay buffer B (HBSS, 20 mM HEPES, 0.1% BSA), and use FDSS uCELL (Hamamatsu Photonics) to measure the fluorescence value every 1 second for 1 minute, and then every 2 seconds for […]. It was measured for 1 minute and 40 seconds. The amount of fluorescence value when DMSO is added instead of the test compound is defined as 0%, and the amount of fluorescence value when orexin A (human) (Peptide Institute) with a final concentration of 10 nM is added is defined as 100%. The activity (%) of the test compound was calculated.

Row | OX2R agonist activity (3 μM, %) | SMILES
1 | 102% | Cc1cnc([C@@H]2CC(N3C[C@@H](NS(=O)(=O)C4CC4)C(F)(F)C3)=NO2)c(-c2c(F)cccc2F)c1 [Example 33, N-[(3R)-1-{(5S)-5-[3-(2,6-difluorophenyl)-5-methylpyridin-2-yl]-4,5-dihydro-1,2-oxazol-3-yl}-4,4-difluoropyrrolidin-3-yl]cyclopropanesulfonamide]
2 | 105% | CCS(=O)(=O)N[C@@H]1CN(C2=NOC(c3ncc(F)cc3-c3c(F)cc(F)cc3F)C2)CC1(F)F (stereo partly drawn) [Example 34, N-[(3R)-4,4-difluoro-1-{5-[5-fluoro-3-(2,4,6-trifluorophenyl)pyridin-2-yl]-4,5-dihydro-1,2-oxazol-3-yl}pyrrolidin-3-yl]ethanesulfonamide]
3 | 92% | CN(C)S(=O)(=O)N[C@H]1CCN(C2=NOC(c3ncccc3-c3c(F)cc(F)cc3F)C2)C1 (stereo partly drawn) [Example 35, N,N-dimethyl-N′-[(3S)-1-{5-[3-(2,4,6-trifluorophenyl)pyridin-2-yl]-4,5-dihydro-1,2-oxazol-3-yl}pyrrolidin-3-yl]sulfuric diamide]
4 | 103% | O=S(=O)(CF)N[C@H]1CCN(C2=NOC(c3ncc(F)cc3-c3c(F)cc(F)cc3F)C2)C1 (stereo partly drawn) [Example 36, 1-fluoro-N-[(3S)-1-{5-[5-fluoro-3-(2,4,6-trifluorophenyl)pyridin-2-yl]-4,5-dihydro-1,2-oxazol-3-yl}pyrrolidin-3-yl]methanesulfonamide]
5 | 103% | Cc1cnc([C@@H]2CC(N3CC[C@H](NS(=O)(=O)C(F)F)C3)=NO2)c(-c2c(F)cccc2F)c1 [Example 37, N-[(3S)-1-{(5S)-5-[3-(2,6-difluorophenyl)-5-methylpyridin-2-yl]-4,5-dihydro-1,2-oxazol-3-yl}pyrrolidin-3-yl]-1,1-difluoromethanesulfonamide]
6 | 104% | Cc1cnc([C@@H]2CC(N3CC[C@H](NS(=O)(=O)CF)C3)=NO2)c(-c2c(F)cccc2F)c1 [Example 38, N-[(3S)-1-{(5S)-5-[3-(2,6-difluorophenyl)-5-methylpyridin-2-yl]-4,5-dihydro-1,2-oxazol-3-yl}pyrrolidin-3-yl]-1-fluoromethanesulfonamide]
7 | 97% | CS(=O)(=O)N[C@@H]1CN(C2=NOC(c3ncc(Cl)cc3-c3c(F)cc(F)cc3F)C2)CC1(F)F (stereo partly drawn) [Example 39, N-[(3R)-1-{5-[5-chloro-3-(2,4,6-trifluorophenyl)pyridin-2-yl]-4,5-dihydro-1,2-oxazol-3-yl}-4,4-difluoropyrrolidin-3-yl]methanesulfonamide]
8 | 103% | CS(=O)(=O)N[C@@H]1CN(C2=NOC(c3ncc(Br)cc3-c3c(F)cc(F)cc3F)C2)CC1(F)F (stereo partly drawn) [Example 40, N-[(3R)-1-{5-[5-bromo-3-(2,4,6-trifluorophenyl)pyridin-2-yl]-4,5-dihydro-1,2-oxazol-3-yl}-4,4-difluoropyrrolidin-3-yl]methanesulfonamide]
9 | 107% | CS(=O)(=O)N[C@@H]1CN(C2=NOC(c3ncc(C(F)F)cc3-c3c(F)cc(F)cc3F)C2)CC1(F)F (stereo partly drawn) [Example 41, N-[(3R)-1-{5-[5-(difluoromethyl)-3-(2,4,6-trifluorophenyl)pyridin-2-yl]-4,5-dihydro-1,2-oxazol-3-yl}-4,4-difluoropyrrolidin-3-yl]methanesulfonamide]
10 | 100% | CCS(=O)(=O)N[C@@H]1CN(C2=NOC(c3ncc(Cl)cc3-c3c(F)cc(F)cc3F)C2)CC1(F)F (stereo partly drawn) [Example 42, N-[(3R)-1-{5-[5-chloro-3-(2,4,6-trifluorophenyl)pyridin-2-yl]-4,5-dihydro-1,2-oxazol-3-yl}-4,4-difluoropyrrolidin-3-yl]ethanesulfonamide]
11 | 103% | CCS(=O)(=O)N[C@@H]1CN(C2=NO[C@H](c3ncc(Br)cc3-c3c(F)cc(F)cc3F)C2)CC1(F)F [Example 43, N-[(3R)-1-{5-[5-bromo-3-(2,4,6-trifluorophenyl)pyridin-2-yl]-4,5-dihydro-1,2-oxazol-3-yl}-4,4-difluoropyrrolidin-3-yl]ethanesulfonamide]
12 | 95% | Cc1cnc([C@@H]2CC(N3C[C@@H](F)[C@H](NS(C)(=O)=O)C3)=NO2)c(-c2c(F)cccc2F)c1 [Example 44, N-[(3R,4R)-1-{(5S)-5-[3-(2,6-difluorophenyl)-5-methylpyridin-2-yl]-4,5-dihydro-1,2-oxazol-3-yl}-4-fluoropyrrolidin-3-yl]methanesulfonamide]
13 | 101% | Cc1cnc([C@@H]2CC(N3CC[C@H](NS(C)(=O)=O)C3)=NO2)c(-c2c(F)cc(F)cc2F)c1 [Example 45, N-[(3S)-1-{(5S)-5-[5-methyl-3-(2,4,6-trifluorophenyl)pyridin-2-yl]-4,5-dihydro-1,2-oxazol-3-yl}pyrrolidin-3-yl]methanesulfonamide]
14 | 99% | Cc1cnc([C@@H]2CC(N3CC[C@H](NS(=O)(=O)C4(F)CC4)C3)=NO2)c(-c2c(F)cc(F)cc2F)c1 [Example 46, 1-fluoro-N-[(3S)-1-{(5S)-5-[5-methyl-3-(2,4,6-trifluorophenyl)pyridin-2-yl]-4,5-dihydro-1,2-oxazol-3-yl}pyrrolidin-3-yl]cyclopropane-1-sulfonamide]
15 | 93% | CCS(=O)(=O)N[C@@H]1CN(C2=NO[C@H](c3ncc(C)cc3-c3c(F)cc(F)cc3F)C2)CC1(F)F [Example 47, N-[(3R)-4,4-difluoro-1-{(5S)-5-[5-methyl-3-(2,4,6-trifluorophenyl)pyridin-2-yl]-4,5-dihydro-1,2-oxazol-3-yl}pyrrolidin-3-yl]ethanesulfonamide]
16 | 94% | Cc1cnc([C@@H]2CC(N3C[C@@H](F)[C@H](NS(C)(=O)=O)C3)=NO2)c(-c2c(F)cc(F)cc2F)c1 [Example 48, N-[(3R,4R)-4-fluoro-1-{(5S)-5-[5-methyl-3-(2,4,6-trifluorophenyl)pyridin-2-yl]-4,5-dihydro-1,2-oxazol-3-yl}pyrrolidin-3-yl]methanesulfonamide]
17 | 95% | CS(=O)(=O)N[C@@H]1CN(C2=NOC(c3ncc(Cl)cc3-c3c(F)cccc3F)C2)CC1(F)F (stereo partly drawn) [Example 49, N-[(3R)-1-{5-[5-chloro-3-(2,6-difluorophenyl)pyridin-2-yl]-4,5-dihydro-1,2-oxazol-3-yl}-4,4-difluoropyrrolidin-3-yl]methanesulfonamide]
18 | 99% | Cc1ccc([C@@H]2CC(N3CC[C@H](NS(C)(=O)=O)C3)=NO2)c(-c2ncc(F)cc2F)c1 [Example 50, N-[(3S)-1-{5-[2-(3,5-difluoropyridin-2-yl)-4-methylphenyl]-4,5-dihydro-1,2-oxazol-3-yl}pyrrolidin-3-yl]methanesulfonamide]
19 | 93% | CS(=O)(=O)N[C@@H]1CN(C2=NOC(c3ncc(Br)cc3-c3c(F)cccc3F)C2)CC1(F)F (stereo partly drawn) [Example 52, N-[(3R)-1-{5-[5-bromo-3-(2,6-difluorophenyl)pyridin-2-yl]-4,5-dihydro-1,2-oxazol-3-yl}-4,4-difluoropyrrolidin-3-yl]methanesulfonamide]
20 | 98% | Cc1cnc([C@@H]2CC(N3C[C@@H](NS(C)(=O)=O)C(F)(F)C3)=NO2)c(-c2c(F)cc(Cl)cc2F)c1 [Example 53, N-[(3R)-1-{5-[3-(4-chloro-2,6-difluorophenyl)-5-methylpyridin-2-yl]-4,5-dihydro-1,2-oxazol-3-yl}-4,4-difluoropyrrolidin-3-yl]methanesulfonamide]
21 | 92% | Cc1cnc([C@@H]2CC(N3C[C@@H](NS(C)(=O)=O)C(F)(F)C3)=NO2)c(-c2c(F)ccc(F)c2F)c1 [Example 54, N-[(3R)-4,4-difluoro-1-{5-[5-methyl-3-(2,3,6-trifluorophenyl)pyridin-2-yl]-4,5-dihydro-1,2-oxazol-3-yl}pyrrolidin-3-yl]methanesulfonamide]
22 | 104% | Cc1cnc([C@@H]2CC(N3C[C@@H](NS(=O)(=O)C4CC4)C(F)(F)C3)=NO2)c(-c2c(F)cc(F)cc2F)c1 [Example 55, N-[(3R)-4,4-difluoro-1-{(5S)-5-[5-methyl-3-(2,4,6-trifluorophenyl)pyridin-2-yl]-4,5-dihydro-1,2-oxazol-3-yl}pyrrolidin-3-yl]cyclopropanesulfonamide]
